Here are results for two compounds from ChEMBL document CHEMBL5291721, “A preclinical secondary pharmacology resource illuminates target-adverse drug reaction associations of marketed drugs” (Nat Commun, 2023).

SMILES strings stand for the structures. Where only a bound is given, the exact number is not on record here.

In experiment [1] the target is T1, 5-hydroxytryptamine receptor 1A (Homo sapiens, UniProt P08908).
T1 sequence (P08908 whole entry): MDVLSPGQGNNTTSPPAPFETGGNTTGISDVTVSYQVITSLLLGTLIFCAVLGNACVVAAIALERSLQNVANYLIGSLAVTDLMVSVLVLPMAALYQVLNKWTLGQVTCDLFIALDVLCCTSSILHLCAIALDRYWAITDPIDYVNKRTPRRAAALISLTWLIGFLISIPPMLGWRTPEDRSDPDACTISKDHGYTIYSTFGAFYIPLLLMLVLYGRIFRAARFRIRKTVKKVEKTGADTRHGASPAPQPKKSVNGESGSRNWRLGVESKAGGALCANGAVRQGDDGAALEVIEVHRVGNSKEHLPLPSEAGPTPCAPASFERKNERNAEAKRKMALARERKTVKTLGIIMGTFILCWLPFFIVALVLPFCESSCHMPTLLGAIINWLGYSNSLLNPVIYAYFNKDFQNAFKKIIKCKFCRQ
The class given is functional, cell-based.

The target in experiment [2] is T2, 5-hydroxytryptamine receptor 2C (Homo sapiens, UniProt P28335).
T2 sequence (P28335 whole entry): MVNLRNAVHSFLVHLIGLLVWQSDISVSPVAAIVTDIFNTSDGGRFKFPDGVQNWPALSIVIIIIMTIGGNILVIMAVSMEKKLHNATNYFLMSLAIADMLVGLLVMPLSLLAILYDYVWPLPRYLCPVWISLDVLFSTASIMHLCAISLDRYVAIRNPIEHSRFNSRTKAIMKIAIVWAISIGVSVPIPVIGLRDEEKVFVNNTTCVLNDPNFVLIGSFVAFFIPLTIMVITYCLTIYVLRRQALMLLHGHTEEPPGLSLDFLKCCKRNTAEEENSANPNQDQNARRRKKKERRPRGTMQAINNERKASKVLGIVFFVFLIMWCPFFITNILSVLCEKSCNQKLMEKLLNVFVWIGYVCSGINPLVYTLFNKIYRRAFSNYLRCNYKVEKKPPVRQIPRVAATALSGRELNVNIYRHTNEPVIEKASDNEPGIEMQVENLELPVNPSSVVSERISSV

Another experiment deals with Melanocortin receptor 3 (Homo sapiens, UniProt P41968).
Experiment [3] concerns the target T3, Type-1 angiotensin II receptor (Homo sapiens, UniProt P30556).
T3 sequence (P30556 whole entry): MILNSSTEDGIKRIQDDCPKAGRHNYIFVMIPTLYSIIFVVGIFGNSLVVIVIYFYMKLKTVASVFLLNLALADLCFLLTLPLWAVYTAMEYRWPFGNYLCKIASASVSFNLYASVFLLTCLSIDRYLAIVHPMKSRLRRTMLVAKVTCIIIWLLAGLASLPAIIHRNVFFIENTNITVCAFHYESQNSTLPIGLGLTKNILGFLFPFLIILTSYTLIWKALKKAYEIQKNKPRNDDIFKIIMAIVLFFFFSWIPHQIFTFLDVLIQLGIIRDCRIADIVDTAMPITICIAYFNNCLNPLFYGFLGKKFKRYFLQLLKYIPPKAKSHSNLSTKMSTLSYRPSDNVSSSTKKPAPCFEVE

Experiment [4] addresses T4, Neuropeptide Y receptor type 1 (Homo sapiens, UniProt P25929).
T4 sequence (P25929 whole entry): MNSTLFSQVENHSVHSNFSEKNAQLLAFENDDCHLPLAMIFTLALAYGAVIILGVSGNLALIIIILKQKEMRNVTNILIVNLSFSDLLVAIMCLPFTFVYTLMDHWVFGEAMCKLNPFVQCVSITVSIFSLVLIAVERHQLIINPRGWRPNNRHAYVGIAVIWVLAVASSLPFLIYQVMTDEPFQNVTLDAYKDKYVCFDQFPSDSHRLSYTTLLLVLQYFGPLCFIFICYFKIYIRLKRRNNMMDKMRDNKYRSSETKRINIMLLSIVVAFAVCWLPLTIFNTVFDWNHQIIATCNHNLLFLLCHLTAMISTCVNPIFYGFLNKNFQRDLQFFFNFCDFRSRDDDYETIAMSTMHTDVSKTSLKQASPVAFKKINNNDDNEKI

The target in another experiment is T5, Progesterone receptor (Homo sapiens, UniProt P06401).
T5 sequence (P06401 whole entry): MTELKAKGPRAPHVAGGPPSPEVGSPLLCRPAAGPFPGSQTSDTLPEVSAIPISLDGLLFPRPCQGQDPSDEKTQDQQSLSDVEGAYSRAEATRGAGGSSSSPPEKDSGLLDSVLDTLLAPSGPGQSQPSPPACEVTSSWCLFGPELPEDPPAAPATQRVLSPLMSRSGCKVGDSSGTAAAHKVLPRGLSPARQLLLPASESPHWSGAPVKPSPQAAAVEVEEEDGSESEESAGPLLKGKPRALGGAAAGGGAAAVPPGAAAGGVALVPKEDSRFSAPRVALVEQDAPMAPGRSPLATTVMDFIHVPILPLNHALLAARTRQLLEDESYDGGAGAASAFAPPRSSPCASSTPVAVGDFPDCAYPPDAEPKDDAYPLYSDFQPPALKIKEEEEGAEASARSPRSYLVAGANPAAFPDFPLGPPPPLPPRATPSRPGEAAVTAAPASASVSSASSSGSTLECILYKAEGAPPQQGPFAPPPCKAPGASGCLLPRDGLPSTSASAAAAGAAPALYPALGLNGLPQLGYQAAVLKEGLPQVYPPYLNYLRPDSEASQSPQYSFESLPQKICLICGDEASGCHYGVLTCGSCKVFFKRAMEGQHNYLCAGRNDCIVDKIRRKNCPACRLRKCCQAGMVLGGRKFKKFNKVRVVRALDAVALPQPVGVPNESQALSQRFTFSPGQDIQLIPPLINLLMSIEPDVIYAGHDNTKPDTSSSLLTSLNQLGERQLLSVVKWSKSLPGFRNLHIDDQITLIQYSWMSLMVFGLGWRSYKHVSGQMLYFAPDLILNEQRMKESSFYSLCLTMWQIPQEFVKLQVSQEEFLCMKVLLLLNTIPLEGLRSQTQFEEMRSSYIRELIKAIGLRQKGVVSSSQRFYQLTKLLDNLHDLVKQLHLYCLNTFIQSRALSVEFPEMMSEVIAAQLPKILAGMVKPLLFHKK
In kind it is functional.

The next experiment concerns the target Adenosine receptor A2a (Homo sapiens, UniProt P29274).
Experiment [5] deals with Glutamate receptor ionotropic, NMDA 1 (Rattus norvegicus, UniProt P35439).
In experiment [6] the target is Voltage-dependent L-type calcium channel subunit alpha-1C (Rattus norvegicus, UniProt P22002). The class given is functional.
Further: assay procedure not described here.

Melanocortin receptor 3, sequence (P41968 whole entry): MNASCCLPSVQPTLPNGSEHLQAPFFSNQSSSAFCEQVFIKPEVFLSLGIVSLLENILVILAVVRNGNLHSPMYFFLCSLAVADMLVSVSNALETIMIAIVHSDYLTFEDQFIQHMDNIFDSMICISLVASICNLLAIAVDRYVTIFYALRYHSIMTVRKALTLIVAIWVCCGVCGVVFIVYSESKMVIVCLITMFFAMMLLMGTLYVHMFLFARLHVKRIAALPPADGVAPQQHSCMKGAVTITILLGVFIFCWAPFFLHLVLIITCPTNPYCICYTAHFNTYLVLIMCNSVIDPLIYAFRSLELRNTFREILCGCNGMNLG
Voltage-dependent L-type calcium channel subunit alpha-1C, sequence (P22002 whole entry): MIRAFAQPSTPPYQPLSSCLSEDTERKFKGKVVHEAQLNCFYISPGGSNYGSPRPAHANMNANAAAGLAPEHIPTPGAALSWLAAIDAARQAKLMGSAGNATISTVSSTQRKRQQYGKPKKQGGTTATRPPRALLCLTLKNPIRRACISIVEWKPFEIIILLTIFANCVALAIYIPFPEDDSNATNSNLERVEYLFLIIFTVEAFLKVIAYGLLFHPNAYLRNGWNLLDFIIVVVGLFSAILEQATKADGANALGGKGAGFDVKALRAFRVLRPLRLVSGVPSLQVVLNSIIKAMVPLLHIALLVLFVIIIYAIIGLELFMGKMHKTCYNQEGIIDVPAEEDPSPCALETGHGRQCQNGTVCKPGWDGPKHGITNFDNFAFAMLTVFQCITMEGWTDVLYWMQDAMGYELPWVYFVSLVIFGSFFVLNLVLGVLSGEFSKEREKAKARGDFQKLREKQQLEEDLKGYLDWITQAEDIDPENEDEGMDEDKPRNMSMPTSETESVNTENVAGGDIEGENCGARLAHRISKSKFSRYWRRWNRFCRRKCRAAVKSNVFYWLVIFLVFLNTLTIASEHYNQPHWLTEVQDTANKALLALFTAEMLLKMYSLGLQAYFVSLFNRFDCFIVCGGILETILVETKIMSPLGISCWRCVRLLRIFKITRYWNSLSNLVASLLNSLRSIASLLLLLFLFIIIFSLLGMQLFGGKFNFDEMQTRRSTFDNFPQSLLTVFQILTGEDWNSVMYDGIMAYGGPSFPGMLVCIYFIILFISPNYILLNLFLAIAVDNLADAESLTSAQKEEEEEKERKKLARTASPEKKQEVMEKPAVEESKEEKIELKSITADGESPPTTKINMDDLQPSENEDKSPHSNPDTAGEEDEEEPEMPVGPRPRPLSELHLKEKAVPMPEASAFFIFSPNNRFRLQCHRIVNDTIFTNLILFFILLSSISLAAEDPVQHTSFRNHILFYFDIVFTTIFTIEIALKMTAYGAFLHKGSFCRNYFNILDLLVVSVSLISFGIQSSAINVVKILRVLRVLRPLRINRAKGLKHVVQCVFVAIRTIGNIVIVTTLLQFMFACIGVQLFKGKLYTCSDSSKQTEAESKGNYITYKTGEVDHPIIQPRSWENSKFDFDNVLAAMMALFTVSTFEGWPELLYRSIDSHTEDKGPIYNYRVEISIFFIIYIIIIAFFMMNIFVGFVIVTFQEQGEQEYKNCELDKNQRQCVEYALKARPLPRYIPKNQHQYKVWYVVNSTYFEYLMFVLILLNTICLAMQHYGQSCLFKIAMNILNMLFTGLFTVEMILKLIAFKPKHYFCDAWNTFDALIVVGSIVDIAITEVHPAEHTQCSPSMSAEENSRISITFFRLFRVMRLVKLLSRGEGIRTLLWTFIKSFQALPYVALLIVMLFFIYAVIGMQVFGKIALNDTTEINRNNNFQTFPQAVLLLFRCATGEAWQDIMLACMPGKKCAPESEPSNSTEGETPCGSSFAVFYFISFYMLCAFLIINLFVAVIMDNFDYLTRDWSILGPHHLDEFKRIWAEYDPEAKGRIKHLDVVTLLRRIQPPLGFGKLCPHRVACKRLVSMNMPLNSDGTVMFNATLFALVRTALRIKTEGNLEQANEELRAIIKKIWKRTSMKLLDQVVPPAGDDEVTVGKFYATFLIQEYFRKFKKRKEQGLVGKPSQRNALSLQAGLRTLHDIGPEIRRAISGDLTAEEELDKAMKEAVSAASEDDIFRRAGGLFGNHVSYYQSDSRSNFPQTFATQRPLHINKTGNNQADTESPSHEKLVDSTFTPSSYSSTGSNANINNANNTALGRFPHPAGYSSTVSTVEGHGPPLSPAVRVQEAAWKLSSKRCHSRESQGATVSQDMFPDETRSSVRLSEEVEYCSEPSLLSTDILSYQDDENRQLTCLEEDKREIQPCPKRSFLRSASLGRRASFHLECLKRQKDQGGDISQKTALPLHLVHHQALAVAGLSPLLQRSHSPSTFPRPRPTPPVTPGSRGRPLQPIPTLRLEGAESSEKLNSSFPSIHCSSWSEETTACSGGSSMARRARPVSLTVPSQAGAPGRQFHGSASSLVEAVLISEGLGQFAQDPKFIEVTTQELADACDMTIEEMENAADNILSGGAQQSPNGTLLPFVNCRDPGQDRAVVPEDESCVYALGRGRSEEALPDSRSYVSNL
Adenosine receptor A2a, sequence (P29274 whole entry): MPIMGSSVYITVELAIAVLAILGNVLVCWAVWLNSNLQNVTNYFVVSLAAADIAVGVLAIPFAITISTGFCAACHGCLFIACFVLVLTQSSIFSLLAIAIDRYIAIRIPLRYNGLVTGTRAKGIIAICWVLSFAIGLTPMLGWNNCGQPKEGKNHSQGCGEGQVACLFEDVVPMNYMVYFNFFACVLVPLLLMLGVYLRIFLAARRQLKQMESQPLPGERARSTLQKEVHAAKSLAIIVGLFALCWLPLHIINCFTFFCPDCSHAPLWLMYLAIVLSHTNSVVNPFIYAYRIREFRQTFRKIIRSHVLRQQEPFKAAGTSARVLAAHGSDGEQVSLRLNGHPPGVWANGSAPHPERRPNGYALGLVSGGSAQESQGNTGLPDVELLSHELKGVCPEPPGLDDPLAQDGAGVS

The term AC50 denotes the midpoint of the concentration-response curve, whichever way the signal moves. Take `CN(C)[C@@H]1C(O)=C(C(=O)NCN2CCCC2)C(=O)[C@@]2(O)C(O)=C3C(=O)c4c(O)cccc4[C@@](C)(O)[C@H]3C[C@@H]12` [ROLITETRACYCLINE]: the concentration at half-maximal activity (AC50) in [1] was > 30 µM; in experiment [2], > 30 µM; on Melanocortin receptor 3, > 10 µM; in experiment [3], > 10 µM; in [4], > 10 µM; on Progesterone receptor, > 30 µM. Also, the AC50 (on Adenosine receptor A2a; in experiment [5]; in experiment [6]) was > 10 µM in each case.

With `CC1(C)O[C@@H]2C[C@H]3[C@@H]4CCC5=CC(=O)C=C[C@]5(C)[C@@]4(F)[C@@H](O)C[C@]3(C)[C@]2(C(=O)CO)O1` [TRIAMCINOLONE ACETONIDE], the AC50 was > 30 µM in experiment [1]; > 30 µM in experiment [2]; > 30 µM on Melanocortin receptor 3; > 30 µM in experiment [3]; > 30 µM in [4]; 0.02 µM at Progesterone receptor. The AC50 (on Adenosine receptor A2a; in [5]; in experiment [6]) was > 30 µM each time.
